The text below walks through data of PubChem BioAssay (NCI).

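96-well plates; 48 h exposure; 5 concentrations. Endpoints by linear interpolation between flanking doses. Not reached: highest tested concentration assigned. GI50 = concentration required for 50% inhibition of growth. Definition used: TGI = concentration required for complete inhibition of growth.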 A value given as a limit tells only on which side of the number the result lay.

The subject of the first assay is SK-MEL-5 melanoma. The assay can be described thus: NCI tumour cell line growth inhibition, 48 h.
`N#C[C@H](OC1OC(COC2OC(CO)C(O)C(O)C2O)C(O)C(O)C1O)c1ccccc1` (stereo partly specified) yielded a TGI of over 250 µM.
On the same count and under the same terms, under `CCN(CC)c1ccc2cc(C(=O)Nc3ccc4[nH]c(C(=O)N5C[C@@H](CCl)c6c5cc(OC(=O)Nc5ccccc5)c5[nH]cc(C)c65)cc4c3)oc2c1` stands over 1000 µM; under `Cn1c(=O)c2[nH]c(CCNC(=O)c3ccccc3)nc2n(C)c1=O`, over 100 µM; under `Cc1cc(S(=O)(=O)Nc2nc3ccccc3nc2-c2cccc([N+](=O)[O-])c2)c(S)cc1Cl`, 28.4 µM.
`O=c1ssc(=Nc2ccccc2)n1-c1ccccc1` gave a TGI of over 100 µM.
`NCCSS(=O)(=O)CCN` returned a TGI of over 100 µM.
On the same count and under the same terms, under `CC(=O)Oc1cc2c(cc1OC(C)=O)OCC(c1ccccc1)C2` (stereo unspecified) stands 39 µM.
The same measure, in the same setting: under `OCCNCCN1CCN(CCCN2c3ccccc3Sc3ccc(C(F)(F)F)cc32)CC1` stands over 100 µM; under `O=C(CCl)NNC1=Nc2ccc(Cl)cc2SC1`, 6.54 µM.
Still for that read-out and setting: under `Cc1ccc(C2OC(COCc3ccc(Cl)cc3)C(OCc3ccc(Cl)cc3)C2O)cc1` (stereo unspecified) stands 25.9 µM; under `C[N+](C)(C)CCc1ccccc1`, over 100 µM; under `COc1c(Br)cc2c(c1OC)C(Br)CCC(Br)(Br)C2=O` (stereo unspecified), 6.26 µM.
In the case of `O=C1C=CC2(C=C1)O[C@H](Cc1ccccc1)[C@@H](Cc1ccccc1)O2`, the TGI came out at 1.76 µM.
Still for that read-out and setting: under `CCCNC(=O)C(C)C1CCC2(C)C=CC(=O)C(C)=C2C1O` (stereo unspecified) stands over 100 µM.
The same measure, in the same setting: then `O=C(Nc1nc2ccc([N+](=O)[O-])cc2s1)C(=O)C(C(=O)c1ccccc1F)C1OC(=O)c2ccccc21` (stereo unspecified), with over 100 µM; and `Nc1ccn(C2C=C(CO)C(O)C2O)c(=O)c1` (stereo unspecified), with over 625 µM.
Still for that read-out and setting: then `COc1nc(=O)n(COC(CO)CN2C(=O)c3ccccc3C2=O)cc1Cc1cccc(OCc2ccccc2)c1` (stereo unspecified), with 30.5 µM.

Another assay concerns U251 CNS. Description: NCI tumour cell line growth inhibition, 48 h.
Take `N#C[C@H](OC1OC(COC2OC(CO)C(O)C(O)C2O)C(O)C(O)C1O)c1ccccc1` (stereo partly specified): the TGI is over 250 µM.
Take `CCN(CC)c1ccc2cc(C(=O)Nc3ccc4[nH]c(C(=O)N5C[C@@H](CCl)c6c5cc(OC(=O)Nc5ccccc5)c5[nH]cc(C)c65)cc4c3)oc2c1`: the GI50 is 92.7 µM and the TGI came out at 235 µM.
`Cn1c(=O)c2[nH]c(CCNC(=O)c3ccccc3)nc2n(C)c1=O` came in with a TGI of over 100 µM.
The compound `Cc1cc(S(=O)(=O)Nc2nc3ccccc3nc2-c2cccc([N+](=O)[O-])c2)c(S)cc1Cl` had a TGI of 38.6 µM.
Same read-out and setting: then `O=c1ssc(=Nc2ccccc2)n1-c1ccccc1`, with 50 µM.
Regarding `NCCSS(=O)(=O)CCN`, the TGI is over 100 µM.
As to `CC(=O)Oc1cc2c(cc1OC(C)=O)OCC(c1ccccc1)C2` (stereo unspecified), the TGI was 29.5 µM.
Regarding `OCCNCCN1CCN(CCCN2c3ccccc3Sc3ccc(C(F)(F)F)cc32)CC1`, the TGI was 35.8 µM.
As to `O=C(O)c1cc2c(ncc3c(=O)n(-c4ccccc4)[nH]c32)s1`, the TGI is over 100 µM.
The same measure, in the same setting: then `O=C(CCl)NNC1=Nc2ccc(Cl)cc2SC1`, with 4.28 µM; and `CCCc1c(-c2ccccc2)[nH]c2ccccc2c1=O`, with over 100 µM; and `Cc1ccc(C2OC(COCc3ccc(Cl)cc3)C(OCc3ccc(Cl)cc3)C2O)cc1` (stereo unspecified), with 34.2 µM.
On to `CO/N=C(/C)c1ccc(NC(=O)CSc2nnc(-c3ccncc3)n2-c2ccccc2)cc1`, for which the GI50 is 3.22 µM and the TGI is over 100 µM.
In turn, `C[N+](C)(C)CCc1ccccc1` yielded a TGI of over 100 µM.
The same measure, in the same setting: then `COc1c(Br)cc2c(c1OC)C(Br)CCC(Br)(Br)C2=O` (stereo unspecified), with 5.91 µM; and `O=C1C=CC2(C=C1)O[C@H](Cc1ccccc1)[C@@H](Cc1ccccc1)O2`, with 2.86 µM.
`CCCNC(=O)C(C)C1CCC2(C)C=CC(=O)C(C)=C2C1O` (stereo unspecified) yielded a TGI of over 100 µM.
The compound `O=C(Nc1nc2ccc([N+](=O)[O-])cc2s1)C(=O)C(C(=O)c1ccccc1F)C1OC(=O)c2ccccc21` (stereo unspecified) came in with a TGI of 41.3 µM.
With `COc1nc(=O)n(COC(CO)CN2C(=O)c3ccccc3C2=O)cc1Cc1cccc(OCc2ccccc2)c1` (stereo unspecified), the TGI was 51.8 µM.

The subject of a further assay is OVCAR-4 ovarian. The assay can be described thus: NCI tumour cell line growth inhibition, 48 h.
In the case of `N#C[C@H](OC1OC(COC2OC(CO)C(O)C(O)C2O)C(O)C(O)C1O)c1ccccc1` (stereo partly specified), the TGI is over 250 µM.
With `CCN(CC)c1ccc2cc(C(=O)Nc3ccc4[nH]c(C(=O)N5C[C@@H](CCl)c6c5cc(OC(=O)Nc5ccccc5)c5[nH]cc(C)c65)cc4c3)oc2c1`, the GI50 is 428 µM and the TGI is over 1000 µM.
`Cn1c(=O)c2[nH]c(CCNC(=O)c3ccccc3)nc2n(C)c1=O` returned a TGI of over 100 µM.
For the compound `Cc1cc(S(=O)(=O)Nc2nc3ccccc3nc2-c2cccc([N+](=O)[O-])c2)c(S)cc1Cl`, the TGI came out at 66.8 µM.
`O=c1ssc(=Nc2ccccc2)n1-c1ccccc1` displayed a TGI of 33.2 µM.
Still for that read-out and setting: under `NCCSS(=O)(=O)CCN` stands over 100 µM; under `CC(=O)Oc1cc2c(cc1OC(C)=O)OCC(c1ccccc1)C2` (stereo unspecified), 55.4 µM; under `OCCNCCN1CCN(CCCN2c3ccccc3Sc3ccc(C(F)(F)F)cc32)CC1`, 48.8 µM.
In turn, `O=C(O)c1cc2c(ncc3c(=O)n(-c4ccccc4)[nH]c32)s1` registered a TGI of over 100 µM.
The compound `O=C(CCl)NNC1=Nc2ccc(Cl)cc2SC1` had a TGI of 5.63 µM.
On the same count and under the same terms, then `CCCc1c(-c2ccccc2)[nH]c2ccccc2c1=O`, with over 100 µM.
On the same count and under the same terms, then `Cc1ccc(C2OC(COCc3ccc(Cl)cc3)C(OCc3ccc(Cl)cc3)C2O)cc1` (stereo unspecified), with 40.9 µM; and `C[N+](C)(C)CCc1ccccc1`, with over 100 µM; and `COc1c(Br)cc2c(c1OC)C(Br)CCC(Br)(Br)C2=O` (stereo unspecified), with 6.87 µM.
The compound `O=C1C=CC2(C=C1)O[C@H](Cc1ccccc1)[C@@H](Cc1ccccc1)O2` had a TGI of 1.69 µM.
In turn, `CCCNC(=O)C(C)C1CCC2(C)C=CC(=O)C(C)=C2C1O` (stereo unspecified) came in with a TGI of over 100 µM.
Same read-out and setting: under `O=C(Nc1nc2ccc([N+](=O)[O-])cc2s1)C(=O)C(C(=O)c1ccccc1F)C1OC(=O)c2ccccc21` (stereo unspecified) stands over 100 µM.
